Assay results: PubChem BioAssay AID1963862 (Molecular Pharmacology Branch, DTP, NCI, 2024)

Tested on: KRAS patient-derived spheroids with HUVEC/MSC, viability
Assay: Anticancer human tumor 941728-121-R-J1-PDC patient-derived lung adenocarcinoma cell line growth inhibition [KRAS2]
Details: for IC50: curve of first compound; for viability, T/C: stronger effect = lower value
How it was run: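 Combination screen of spheroid viability in tumor-cell co-cultures with endothelial (HUVEC) and mesenchymal stem cell stroma. Each agent was tested in half-log dilutions, topping at clinical Cmax or at 10 microM without a known Cmax.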

[1] = second compound 0.1 µM, first compound 0.0316 µM
[2] = second compound 0.1 µM, first compound 0.1 µM
[3] = second compound 0.1 µM, first compound 0.316 µM
[4] = second compound 0.1 µM, first compound 1 µM
[5] = second compound 0.1 µM, first compound 3.16 µM
[6] = second compound 0.1 µM, first compound 10 µM
[7] = second compound 0.316 µM, first compound 0.0316 µM
[8] = second compound 0.316 µM, first compound 0.1 µM
[9] = second compound 0.316 µM, first compound 0.316 µM
[10] = second compound 0.316 µM, first compound 1 µM
[11] = second compound 0.316 µM, first compound 3.16 µM
[12] = second compound 0.316 µM, first compound 10 µM
[13] = second compound 1 µM, first compound 0.0316 µM
[14] = second compound 1 µM, first compound 0.1 µM
[15] = second compound 1 µM, first compound 0.316 µM
[16] = second compound 1 µM, first compound 1 µM
[17] = second compound 1 µM, first compound 3.16 µM
[18] = second compound 1 µM, first compound 10 µM
[19] = second compound 3.16 µM, first compound 0.0316 µM
[20] = second compound 3.16 µM, first compound 0.1 µM
[21] = second compound 3.16 µM, first compound 0.316 µM
[22] = second compound 3.16 µM, first compound 1 µM
[23] = second compound 3.16 µM, first compound 3.16 µM
[24] = second compound 3.16 µM, first compound 10 µM
[25] = second compound 10 µM, first compound 0.0316 µM
[26] = second compound 10 µM, first compound 0.1 µM
[27] = second compound 10 µM, first compound 0.316 µM
[28] = second compound 10 µM, first compound 1 µM
[29] = second compound 10 µM, first compound 3.16 µM
[30] = second compound 10 µM, first compound 10 µM
[31] = second compound 0.1 µM, first compound 0.01 µM
[32] = second compound 0.316 µM, first compound 0.01 µM
[33] = second compound 1 µM, first compound 0.01 µM
[34] = second compound 3.16 µM, first compound 0.01 µM
[35] = second compound 10 µM, first compound 0.01 µM
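Also: spheroids exposed to agents for seven days before readout.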

CC(C)NCC(C(=O)N1CCN(c2ncnc3c2C(C)CC3O)CC1)c1ccc(Cl)cc1 (stereo not given) + CC1OCC2(CCN(c3cnc(Sc4ccnc(N)c4Cl)c(N)n3)CC2)C1N
IC50 (second compound 0.1 µM): < 31.6 nM
IC50 (second compound 0.316 µM): < 31.6 nM
IC50 (second compound 1 µM): < 31.6 nM
IC50 (second compound 3.16 µM): < 31.6 nM
IC50 (second compound 10 µM): < 31.6 nM
viability, T/C [1]: 38.3%
viability, T/C [2]: 40.1%
viability, T/C [3]: 29.9%
viability, T/C [4]: 24.9%
viability, T/C [5]: 19.1%
viability, T/C [6]: 10.4%
viability, T/C [7]: 34%
viability, T/C [8]: 31.9%
viability, T/C [9]: 25.3%
viability, T/C [10]: 20.9%
viability, T/C [11]: 15.1%
viability, T/C [12]: 8.83%
viability, T/C [13]: 26.2%
viability, T/C [14]: 26.8%
viability, T/C [15]: 23.7%
viability, T/C [16]: 16.7%
viability, T/C [17]: 12.8%
viability, T/C [18]: 4.1%
viability, T/C [19]: 25.8%
viability, T/C [20]: 22.1%
viability, T/C [21]: 20.8%
viability, T/C [22]: 14.3%
viability, T/C [23]: 10.7%
viability, T/C [24]: 3.56%
viability, T/C [25]: 19.1%
viability, T/C [26]: 17.9%
viability, T/C [27]: 17.2%
viability, T/C [28]: 11.2%
viability, T/C [29]: 4.83%
viability, T/C [30]: 1.91%

CC1COCCN1c1cc(-c2ccnn2C)c2ccnc(-c3ccn[nH]3)c2n1 (stereo not given) + CC1OCC2(CCN(c3cnc(Sc4ccnc(N)c4Cl)c(N)n3)CC2)C1N
IC50 (second compound 0.1 µM): < 10 nM
IC50 (second compound 0.316 µM): < 10 nM
IC50 (second compound 1 µM): < 10 nM
IC50 (second compound 3.16 µM): < 10 nM
IC50 (second compound 10 µM): < 10 nM
viability, T/C [31]: 43.9%
viability, T/C [1]: 28.7%
viability, T/C [2]: 27.2%
viability, T/C [3]: 26.4%
viability, T/C [4]: 25.4%
viability, T/C [5]: 28.2%
viability, T/C [32]: 32.9%
viability, T/C [7]: 30.4%
viability, T/C [8]: 25.3%
viability, T/C [9]: 23.1%
viability, T/C [10]: 19.9%
viability, T/C [11]: 21.6%
viability, T/C [33]: 29.5%
viability, T/C [13]: 26.9%
viability, T/C [14]: 26.5%
viability, T/C [15]: 22.3%
viability, T/C [16]: 15.8%
viability, T/C [17]: 15.8%
viability, T/C [34]: 26.8%
viability, T/C [19]: 25.3%
viability, T/C [20]: 22.4%
viability, T/C [21]: 18.8%
viability, T/C [22]: 15.9%
viability, T/C [23]: 13.7%
viability, T/C [35]: 25.4%
viability, T/C [25]: 22.9%
viability, T/C [26]: 19.2%
viability, T/C [27]: 14.4%
viability, T/C [28]: 12.9%
viability, T/C [29]: 10.9%

CCN1CCN(Cc2ccc(Nc3ncc(F)c(-c4cc(F)c5nc(C)n(C(C)C)c5c4)n3)nc2)CC1 + CC1OCC2(CCN(c3cnc(Sc4ccnc(N)c4Cl)c(N)n3)CC2)C1N
IC50 (second compound 0.1 µM): < 3.16 nM
IC50 (second compound 0.316 µM): < 3.16 nM
IC50 (second compound 1 µM): < 3.16 nM
IC50 (second compound 3.16 µM): < 3.16 nM
IC50 (second compound 10 µM): < 3.16 nM
viability, T/C (second compound 0.1 µM, first compound 0.00316 µM): 47.5%
viability, T/C [31]: 40.5%
viability, T/C [1]: 36.2%
viability, T/C [2]: 35.9%
viability, T/C [3]: 37.5%
viability, T/C [4]: 44.4%
viability, T/C (second compound 0.316 µM, first compound 0.00316 µM): 35.3%
viability, T/C [32]: 31.2%
viability, T/C [7]: 30.5%
viability, T/C [8]: 31.7%
viability, T/C [9]: 24.3%
viability, T/C [10]: 26%
viability, T/C (second compound 1 µM, first compound 0.00316 µM): 32.5%
viability, T/C [33]: 29.4%
viability, T/C [13]: 29.1%
viability, T/C [14]: 28.5%
viability, T/C [15]: 23.1%
viability, T/C [16]: 17.5%
viability, T/C (second compound 3.16 µM, first compound 0.00316 µM): 25.8%
viability, T/C [34]: 25.4%
viability, T/C [19]: 24.2%
viability, T/C [20]: 24.4%
viability, T/C [21]: 16.5%
viability, T/C [22]: 13.5%
viability, T/C (second compound 10 µM, first compound 0.00316 µM): 22.9%
viability, T/C [35]: 22.7%
viability, T/C [25]: 19.6%
viability, T/C [26]: 15.6%
viability, T/C [27]: 9.09%
viability, T/C [28]: 9.79%

CCNC(=O)CC1N=C(c2ccc(Cl)cc2)c2cc(OC)ccc2-n2c(C)nnc21 (stereo not given) + CC1OCC2(CCN(c3cnc(Sc4ccnc(N)c4Cl)c(N)n3)CC2)C1N
IC50 (second compound 0.1 µM): < 31.6 nM
IC50 (second compound 0.316 µM): < 31.6 nM
IC50 (second compound 1 µM): < 31.6 nM
IC50 (second compound 3.16 µM): < 31.6 nM
IC50 (second compound 10 µM): < 31.6 nM
viability, T/C [1]: 45.2%
viability, T/C [2]: 44%
viability, T/C [3]: 31.5%
viability, T/C [4]: 24.1%
viability, T/C [5]: 21%
viability, T/C [6]: 22.4%
viability, T/C [7]: 37.2%
viability, T/C [8]: 32.5%
viability, T/C [9]: 25.5%
viability, T/C [10]: 17.2%
viability, T/C [11]: 14.8%
viability, T/C [12]: 16.2%
viability, T/C [13]: 32.3%
viability, T/C [14]: 27.5%
viability, T/C [15]: 30.4%
viability, T/C [16]: 13.2%
viability, T/C [17]: 10.3%
viability, T/C [18]: 8.97%
viability, T/C [19]: 25.7%
viability, T/C [20]: 20.9%
viability, T/C [21]: 17.8%
viability, T/C [22]: 10.3%
viability, T/C [23]: 8.12%
viability, T/C [24]: 6.43%
viability, T/C [25]: 22.3%
viability, T/C [26]: 19.1%
viability, T/C [27]: 12%
viability, T/C [28]: 6.42%
viability, T/C [29]: 4.77%
viability, T/C [30]: 4.55%

Cn1nccc1Nc1nccc(-c2cc3c(s2)C(C)(C)N(CCN2CCOCC2)C3=O)n1 + CC1OCC2(CCN(c3cnc(Sc4ccnc(N)c4Cl)c(N)n3)CC2)C1N
IC50 (second compound 0.1 µM): 47.7 nM
IC50 (second compound 0.316 µM): < 31.6 nM
IC50 (second compound 1 µM): < 31.6 nM
IC50 (second compound 3.16 µM): < 31.6 nM
IC50 (second compound 10 µM): < 31.6 nM
viability, T/C [1]: 53.7%
viability, T/C [2]: 43.2%
viability, T/C [3]: 38.1%
viability, T/C [4]: 36%
viability, T/C [5]: 29.2%
viability, T/C [6]: 35.1%
viability, T/C [7]: 45.1%
viability, T/C [8]: 41.5%
viability, T/C [9]: 34.3%
viability, T/C [10]: 34.9%
viability, T/C [11]: 25.8%
viability, T/C [12]: 25%
viability, T/C [13]: 38.2%
viability, T/C [14]: 39.2%
viability, T/C [15]: 31.3%
viability, T/C [16]: 30%
viability, T/C [17]: 23.8%
viability, T/C [18]: 18.9%
viability, T/C [19]: 33.5%
viability, T/C [20]: 30.4%
viability, T/C [21]: 30.9%
viability, T/C [22]: 24.4%
viability, T/C [23]: 16.3%
viability, T/C [24]: 18.3%
viability, T/C [25]: 29%
viability, T/C [26]: 29.5%
viability, T/C [27]: 21.5%
viability, T/C [28]: 15.6%
viability, T/C [29]: 10.8%
viability, T/C [30]: 13.1%

CC(=O)OC12COC1CC(O)C1(C)C(=O)C(O)C3=C(C)C(OC(=O)C(O)C(NC(=O)OC(C)(C)C)c4ccccc4)CC(O)(C(OC(=O)c4ccccc4)C21)C3(C)C (stereo not given) + CNCc1ccccc1-c1csc(C(C)Nc2nc(C)nc3cc(OC)c(OC)cc23)c1
IC50 (second compound 0.1 µM): < 10 nM
IC50 (second compound 0.316 µM): < 10 nM
IC50 (second compound 1 µM): < 10 nM
IC50 (second compound 3.16 µM): < 10 nM
IC50 (second compound 10 µM): < 10 nM
viability, T/C [31]: 35.7%
viability, T/C [1]: 37.4%
viability, T/C [2]: 32%
viability, T/C [3]: 38.3%
viability, T/C [4]: 34.3%
viability, T/C [5]: 41.8%
viability, T/C [32]: 28%
viability, T/C [7]: 28%
viability, T/C [8]: 27%
viability, T/C [9]: 25.9%
viability, T/C [10]: 29.3%
viability, T/C [11]: 30.2%
viability, T/C [33]: 29.2%
viability, T/C [13]: 34.3%
viability, T/C [14]: 34.5%
viability, T/C [15]: 36%
viability, T/C [16]: 38%
viability, T/C [17]: 33%
viability, T/C [34]: 18.7%
viability, T/C [19]: 0.11%
viability, T/C [20]: 0.09%
viability, T/C [21]: 0.11%
viability, T/C [22]: 0.1%
viability, T/C [23]: 31.5%
viability, T/C [35]: 0.14%
viability, T/C [25]: 0.09%
viability, T/C [26]: 0.1%
viability, T/C [27]: 0.13%
viability, T/C [28]: 28.4%
viability, T/C [29]: 0.21%
